Data: publication PMC10835127, “Viruses traverse the human proteome through peptide interfaces that can be biomimetically leveraged for drug discovery” (Proceedings of the National Academy of Sciences of the …, 2024)
Read-outs that look alike come from different tables or passages of the source.

How the values were obtained:
HIV1 strain NL4-3 = assay type: cell-based; settings: normalized mean of HIV1 replication readout
HCV replicon = assay type: cell-based; settings: normalized mean of HCV replicon readout
EBV = settings: normalized mean of EBV replication readout
influenza A H1N1 virus = settings: 48 hr post-treatment, A549
[1] = test system: F. novicida (strain U112); assay type: cell-based

Row | Substance | HIV1 Norm MEAN (HIV1 strain NL4-3) | HCV Norm MEAN (HCV replicon) | EBV Norm MEAN (EBV) | Neuraminidase activity normalized to vehicle (influenza A H1N1 virus; 200 µM peptide) | Neuraminidase activity normalized to vehicle (influenza A H1N1 virus; 0,823 µM peptide) | Neuraminidase activity normalized to vehicle (influenza A H1N1 virus; 22,2 µM peptide) | Neuraminidase activity normalized to vehicle (influenza A H1N1 virus; 2,4691 µM peptide) | Neuraminidase activity normalized to vehicle (influenza A H1N1 virus; 7,4074 µM peptide) | Neuraminidase activity normalized to vehicle (influenza A H1N1 virus; 66,6667 µM peptide) | Francisella novicida Norm AUC [1] | HIV1 Norm MEAN (HIV1 strain NL4-3; peptide screen) | HCV Norm MEAN (HCV replicon; peptide screen) | EBV Norm MEAN (EBV; peptide screen)
1 | CPEP140: peptide of the viral peptide library; sequence page not shown (RKKRRQRRRA) | 1.188 | 0.5668 | 1.618 | 0,616 | 0,9961 | 1,0982 | 1,0685 | 0,9007 | 1,0124 | 0.8228 | – | – | –
2 | CPEP142: peptide of the viral peptide library; sequence page not shown (LGIVCPICSQKP) | 0.603 | 0.308 | 1.863 | 0,8923 | 0,9385 | 0,9689 | 0,9538 | 0,9445 | 1,085 | 1.819 | – | – | –
3 | CPEP153: peptide of the viral peptide library; sequence page not shown (GRKKRRQRRR) | 0.7984 | 0.3202 | 2.382 | 0,9878 | 1,0171 | 1,0832 | 1,0648 | 1,0014 | 1,1029 | 0.6851 | – | – | –
4 | DDLYEEV [CPEP111] | 0.957 | 0.2545 | 0.5736 | 0,7987 | 0,9384 | 0,8898 | 0,8026 | 0,8887 | 0,8909 | 0.6875 | – | – | –
5 | DILDLWIYHTQGYFPDWQ [CPEP114] | – | – | – | 0,4016 | 1,1783 | 1,017 | 1,0928 | 1,195 | 0,5539 | 1.151 | 4.359 | 0.2469 | 1.296
6 | DKELYPLTSLRSLFG [CPEP65] | – | – | – | 0,356 | 0,8623 | 1,0442 | 0,9706 | 0,9802 | 1,0044 | 0.6089 | 0.2888 | 0.8278 | 0.6954
7 | DLYCYEQLNDSSEEE [CPEP55] | – | – | – | 1,025 | 0,8699 | 0,9333 | 0,9062 | 0,9392 | 1,0033 | 1.147 | 0.5362 | 0.7703 | 0.3423
8 | DLYCYEQLNDSSEEEDE [CPEP125] | – | – | – | 0,7813 | 1,0772 | 1,1403 | 0,9577 | 1,1015 | 0,8979 | 1.158 | 1.6 | 0.9031 | 1.019
9 | EALKKALRRHRFLWQRR [CPEP73] | – | – | – | 0,1338 | 1,11 | 1,1241 | 0,9956 | 1,1329 | 0,4622 | 1.711 | 0.2962 | 0.02817 | 2.469
10 | EDLLNEPGQPLDLSC [CPEP104] | – | – | – | 0,8372 | 0,8247 | 0,8954 | 0,9133 | 0,8771 | 0,8952 | 1.073 | 0.2933 | 1.128 | 0.504
11 | EDPNEE [CPEP68] | 1.205 | 0.2553 | 0.4757 | 0,7574 | 0,7462 | 0,8576 | 0,7296 | 0,7652 | 0,95 | 0.6174 | – | – | –
12 | ELLSGLQEWL [CPEP85] | 0.5625 | 0.7957 | 1.35 | 0,9118 | 0,9858 | 0,8356 | 0,9371 | 0,8683 | 0,8029 | 1.212 | – | – | –
13 | EPLDLPPIIQ [CPEP45] | 0.3392 | 1.078 | 0.6832 | 0,7336 | 0,9966 | 0,8381 | 0,9443 | 0,9188 | 0,7574 | 1.0611 | – | – | –
14 | EVLADNLPPP [CPEP90] | 0.8397 | 1.163 | 1.561 | 0,7518 | 0,9901 | 0,7822 | 0,9469 | 0,8328 | 0,7316 | 1.209 | – | – | –
15 | FPESLIL [CPEP76] | 0.9579 | 0.1881 | 1.102 | 0,7678 | 0,7594 | 0,787 | 0,7722 | 0,7943 | 0,7797 | 0.9207 | – | – | –
16 | FVKSNWGLF [CPEP101] | 0.9706 | 0.5497 | 1.466 | 0,7463 | 1,0136 | 0,9003 | 0,9061 | 0,9057 | 0,8948 | 1.6479 | – | – | –
17 | GARASVLS [CPEP108] | 0.3412 | 0.178 | 0.7452 | 0,7289 | 0,7112 | 0,9027 | 0,8479 | 0,9625 | 0,8429 | 1.458 | – | – | –
18 | GGKWSKLS [CPEP134] | 1.139 | 0.2388 | 0.3842 | 0,426 | 0,9416 | 0,8116 | 0,8887 | 0,9196 | 0,7036 | 1.142 | – | – | –
19 | GGLEPLSEKHFRETEV [CPEP112] | – | – | – | 1,0677 | 1,0673 | 1,1545 | 1,0388 | 1,1047 | 1,0264 | 1.082 | 0.2121 | 0.3447 | 0.8103
20 | GHRMAWDMMMNWSP [CPEP107] | – | – | – | 0,108 | 0,7424 | 0,9099 | 0,9047 | 0,8224 | 0,2891 | 0.9779 | 1.4249 | 0.9584 | 0.9961
